Structures can show the parent of a compound that is named as a salt. Some results are limits rather than exact numbers.

Tested on in one series: not given
Test: not given
Settings: not given
For orientation: melting point means the temperature of the solid-liquid transition. Take `C[C@H](CO)Nc1ccc([N+](=O)[O-])cc1C(=O)NCc1ccc2c(c1)OCO2` [Example 7, (R)-2-(2-Hydroxy-1-methylethylamino)-5-nitro-N-(1,3-benzodioxol-5-ylmethyl)benzamide]: the melting point fell in the range of 166 to 168 °C. Take `CCCCC(CO)Nc1ccc([N+](=O)[O-])cc1C(=O)NCc1ccc2c(c1)OCO2` (stereo not shown) [2-[1-(1-Hydroxymethyl)pentylamino]-5-nitro-N-(1,3-benzodioxol-5-ylmethyl)benzamide]: the melting point fell in the range of 112 to 115 °C.

The molecule `COc1ccc(CNC(=O)c2cc([N+](=O)[O-])ccc2NC(C)(C)CO)cc1OC` [Example 66, N-(3,4-Dimethoxybenzyl)-2-(2-hydroxy-1,1-dimethyl-ethylamino)-5-nitrobenzamide] displayed a melting point of 161 to 162 °C. Still for that read-out and setting: under `COc1ccc(CNC(=O)c2cc([N+](=O)[O-])ccc2NC2CC=CCC2)cc1F` (stereo not shown) [153(3), 2-(3-cyclohexenylamino)-N-(3-fluoro-4-methoxybenzyl)-5-nitrobenzamide] stands 140 °C; under `COc1cc(CNC(=O)c2cc(S(C)(=O)=O)ccc2N[C@H]2CC[C@H](O)CC2)ccc1Cl` [Example 102, N-(4-Chloro-3-methoxybenzyl)-2-(trans-4-hydroxycyclohexylamino)-5-methanesulfonylbenzamide], 234 to 235.5 °C. Still for that read-out and setting: under `COc1ccc(CNC(=O)c2cc([N+](=O)[O-])ccc2N[C@H]2CC[C@@H](OC(C)=O)CC2)cc1OC` [2-[cis-4-(acetoxy)cyclohexylamino]-N-(3,4-dimethoxybenzyl)-5-nitrobenzamide] stands 147 to 148 °C; under `COc1ccc(CNC(=O)c2cc(S(=O)(=O)N3CCNCC3)ccc2N[C@H]2CC[C@H](O)CC2)cc1OC` [153(2), N-(3,4-Dimethoxybenzyl)-2-(trans-4-hydroxycyclohexylamino)-5-(piperazinosulfonyl)benzamide], 108 to 110 °C. On the same count and under the same terms, under `COc1ccc(CNC(=O)c2cc([N+](=O)[O-])ccc2N[C@@H](CO)CCSC)cc1OC` [N-(3,4-dimethoxylbenzyl)-2-[(R)-1-hydroxymethyl-3-(methylthio)propylamino]-5-nitrobenzamide] stands 150 to 152 °C. In turn, `CC[C@@H](CO)Nc1ccc([N+](=O)[O-])cc1C(=O)NCc1ccc(OC)c(OC)c1` [Example 65, (S)-N-(3,4-Dimethoxybenzyl)-2-[1-(hydroxymethyl)-propylamino]-5-nitrobenzamide] showed a melting point of 168 to 169 °C. Same read-out and setting: for `COc1ccc(CNC(=O)c2cc([N+](=O)[O-])ccc2N[C@@H](C)CO)cc1OC` [Example 68, (S)-N-(3,4-Dimethoxybenzyl)-2-(2-hydroxy-1-methyl-ethylamino)-5-nitrobenzamide] the value was 131 to 132 °C. The same measure, in the same setting: under `COc1ccc(CNC(=O)c2cc([N+](=O)[O-])ccc2NNCC(F)(F)F)cc1OC` [Example 69, N-(3,4-Dimethoxybenzyl)-5-nitro-2-[2-(2,2,2-trifluoroethyl)hydrazino]benzamide] stands 140 to 142 °C; under `COc1cc(CNC(=O)c2cc([N+](=O)[O-])ccc2N[C@@H](C)CO)cc(OC)c1` [Example 107, (S)-N-(3,5-Dimethoxybenzyl)-2-(2-hydroxy-1-methylethyl)amino-5-nitrobenzamide], 98 to 101 °C; under `COc1cc(CNC(=O)c2cc([N+](=O)[O-])ccc2NC(CO)CO)ccc1Cl` [Example 91, N-(4-Chloro-3-methoxybenzyl)-2-[2-hydroxy-1-(hydroxymethyl)ethylamino]-5-nitrobenzamide], 176 to 177 °C. On the same count and under the same terms, for `O=C(NCc1ccccc1)c1cc([N+](=O)[O-])ccc1NC(CO)CO` [Example 55, N-Benzyl-2-[2-hydroxy-1-(hydroxymethyl)ethylamino]-5-nitrobenzamide] the value was 171 to 173 °C; for `O=C(NCc1ccccc1)c1cc([N+](=O)[O-])ccc1N[C@H]1CC[C@H](O)CC1` [Example 51, N-benzyl-2-(trans-4-hydroxycyclohexylamino)-5-nitrobenzamide], 233 to 234 °C; for `COc1ccc(CNC(=O)c2cc(C#N)ccc2N[C@@H](C)CO)cc1OC` [88(1), (S)-5-Cyano-N-(3,4-dimethoxybenzyl)-2-(2-hydroxy-1-methylethylamino)benzamide], 142 to 143.5 °C. On to `COc1ccc(CNC(=O)c2cc([N+](=O)[O-])ccc2Nc2ccc3[nH]cnc3c2)cc1OC` [Example 80, 2-(1H-Benzimidazol-5-ylamino)-N-(3,4-dimethoxybenzyl)-5-nitrobenzamide], for which the melting point lay within 226.5 to 227 °C. For `CC[C@@H](CO)Nc1ccc([N+](=O)[O-])cc1C(=O)NCc1ccc2c(c1)OCO2` [2(1), (S)-2-[1-(Hydroxymethyl)propylamino]-5-nitro-N-(1,3-benzodioxol-5-ylmethyl)benzamide], the melting point fell in the range of 128 to 130 °C. Same read-out and setting: for `COc1ccc(CNC(=O)c2cc(S(=O)(=O)N3CCN(C(=O)OC(C)(C)C)CC3)ccc2N[C@H]2CC[C@H](O)CC2)cc1OC` [153(1), 5-[4-(tert-Butoxycarbonyl)piperazin-1-ylsulfonyl]-N-(3,4-dimethoxybenzyl)-2-(trans-4-hydroxycyclohexylamino)benzamide] the value was 221 to 222 °C. Still for that read-out and setting: under `COc1ccc(CNC(=O)c2cc([N+](=O)[O-])ccc2N[C@@H]2CCC[C@H]2O)cc1OC` (relative stereo) [Example 67, N-(3,4-Dimethoxybenzyl)-2-(trans-2-hydroxycyclopentylamino)-5-nitrobenzamide] stands 154 to 155 °C; under `O=C(NCc1ccc2c(c1)OCO2)c1cc([N+](=O)[O-])ccc1N[C@H]1CC[C@H](O)CC1` [Example 1(1), 2-(trans-4-hydroxycyclohexylamino)-5-nitro-N-(1,3-benzodioxol-5-ylmethyl)benzamide], 205 to 206 °C; under `COc1ccc(CNC(=O)c2cc(-c3ncc[nH]3)ccc2N[C@H]2CC[C@H](O)CC2)cc1OC` [Example 90, N-(3,4-Dimethoxybenzyl)-2-(trans-4-hydroxycyclohexylamino)-5-(1H-imidazol-2-yl)benzamide], 189 to 190 °C.

Another series addresses T1, human platelet PDE-V (Homo sapiens, UniProt O76074).
T1 construct: Human platelet cGMP-PDE was separated from other isozymes in human platelets; from tissue; host or cells: human platelets
The series is described as follows: cGMP-Phosphodiesterase (PDE) assay, enzymatic inhibitory test. The following applies: human platelet PDE-V; 0.1 μM [3H]-cGMP substrate, 30° C., 10 minutes; read-out: Inhibitory activity IC50. It is filed as biochemical. As for the experimental part: cGMP-Phosphodiesterase (PDE) Assay
Human platelet cGMP-PDE was separated from other isozymes in human platelets by a modification of the method of Thompson et. al. (see Cyclic Nucleotide Phosphodiesterase (PDE), in Methods of Enzymatic analysis, Vol 4, p127-234, 1984). In enzyme inhibition assays, the test compounds were dissolved in DMSO and then diluted with assay buffer (50 mM Tris-HCl, 0.077 mg/ml dithiothreitol and 10 mg/ml snake venom, 1 mM EGTA, pH 8.0), at final concentrations ranging from 10^−10 to 10^−6 M. Assays were performed at 0.1 μM substrate ([^3H]-cGMP) concentration, at 30° C. for 10 minutes using enzyme dilutions which gave 10-20% hydrolysis of substrate. Each assay was initiated by addition of substrate and terminated by addition of anion exchange resin (Dowex® 1-X8, 250 mg/mg) followed by centrifugation for 10 minutes (3000 rpm, at 4° C.). Radioactivity of supernatant (^3H-GMP) was assayed by liquid scintillation counting.
Usually IC50 stands for the concentration at which inhibition is half-maximal. As for `CCCCC(CO)Nc1ccc([N+](=O)[O-])cc1C(=O)NCc1ccc2c(c1)OCO2` (stereo not shown) [2-[1-(1-Hydroxymethyl)pentylamino]-5-nitro-N-(1,3-benzodioxol-5-ylmethyl)benzamide], the IC50 was less than 10 nM.

`COc1ccc(CNC(=O)c2cc([N+](=O)[O-])ccc2N[C@H]2CC[C@@H](OC(C)=O)CC2)cc1OC` [2-[cis-4-(acetoxy)cyclohexylamino]-N-(3,4-dimethoxybenzyl)-5-nitrobenzamide]: the IC50 was less than 10 nM. The same measure, in the same setting: for `COc1ccc(CNC(=O)c2cc([N+](=O)[O-])ccc2N[C@@H](CO)CCSC)cc1OC` [N-(3,4-dimethoxylbenzyl)-2-[(R)-1-hydroxymethyl-3-(methylthio)propylamino]-5-nitrobenzamide] the value was less than 10 nM; for `CC(C)[C@@H](CO)Nc1ccc([N+](=O)[O-])cc1C(=O)NCc1ccc2c(c1)OCO2` [(S)-2-[1-(Hydroxymethyl)-2-methylpropylamino]-5-nitro-N-(1,3-benzodioxol-5-ylmethyl)benzamide], less than 10 nM. Still for that read-out and setting: under `COc1ccc(CNC(=O)c2cc([N+](=O)[O-])ccc2NC2CCN(C(=N)N)CC2)cc1OC` [2-(1-Amidinopiperidin-4-ylamino)-N-(3,4-dimethoxybenzyl)-5-nitrobenzamide hydrochloride] stands less than 10 nM.

As for `CCOc1ccc(CNC(=O)c2cc([N+](=O)[O-])ccc2N[C@H]2CC[C@H](NC=O)CC2)cc1OC` [N-(4-Ethoxy-3-methoxybenzyl)-2-(trans-4-formamidocyclohexylamino)-5-nitrobenzamide], the IC50 is less than 10 nM. As for `O=CN1CCC(Nc2ccc([N+](=O)[O-])cc2C(=O)NCc2ccc3c(c2)OCO3)CC1` [2-(1-Formyl-4-piperidinylamino)-5-nitro-N-(1,3-benzodioxol-5-ylmethyl)benzamide], the IC50 is less than 10 nM.

Consider `COc1ccc(CNC(=O)c2cc([N+](=O)[O-])ccc2NC2CCCC2)c(Cl)c1` [N-(2-Chloro-4-methoxybenzyl)-2-(cyclopentyrlamino)-5-nitrobenzamide], for which the IC50 was less than 10 nM.

On to `CCOc1ccc(CNC(=O)c2cc([N+](=O)[O-])ccc2N[C@H]2CC[C@@H](O)CC2)cc1OC` [N-(4-Ethoxy-3-methoxybenzyl)-2-(cis-4-hydroxycyclohexylamino)-5-nitrobenzamide], for which the IC50 is less than 10 nM. As to `CC(=O)N1CCC(Nc2ccc([N+](=O)[O-])cc2C(=O)NCc2ccc3c(c2)OCO3)CC1` [2-(1-acetyl-4-piperidinylamino)-5-nitro-N-(1,3-benzodioxol-5-ylmethyl)benzamide], the IC50 is less than 10 nM. In the case of `O=C(NCc1ccccc1)c1cc([N+](=O)[O-])ccc1NC1CCCCC1` [N-Benzyl-2-(cyclohexylamino)-5-nitrobenzamide], the IC50 is less than 10 nM. `CC(C)(C)Nc1ccc([N+](=O)[O-])cc1C(=O)NCc1ccc2c(c1)OCO2` [2-(tert-Butylamino)-5-nitro-N-(1,3-benzodioxol-5-ylmethyl)benzamide]: the IC50 was less than 10 nM. Consider `O=C(NCc1ccc2c(c1)OCO2)c1cc([N+](=O)[O-])ccc1NC1CCS(=O)(=O)CC1` [2-(1,1-dioxotetrahydro-2H-thiopyran-4-ylamino)-5-nitro-N-(1,3-benzodioxol-5-ylmethyl)benzamide], for which the IC50 is less than 10 nM.

As for `COc1ccc(Cl)c(CNC(=O)c2cc([N+](=O)[O-])ccc2N[C@H]2CC[C@@H](O)CC2)c1` [N-(2-Chloro-5-methoxybenzyl)-2-(cis-4-hydroxycyclohexylamino)-5-nitrobenzamide], the IC50 is less than 10 nM. The same measure, in the same setting: for `Cc1ccc(CNC(=O)c2cc([N+](=O)[O-])ccc2NC2CCCC2)cc1` [2-(Cyclopentylamino)-N-(4-methylbenzyl)-5-nitrobenzamide] the value was less than 10 nM.

Source of the values: patent publication US6384080B1, “Anthranilic acid derivatives as inhibitors of the cGMP-phosphodiesterase” (Fujisawa Pharmaceutical Co., Ltd., priority 1998, dated 2002).
